Patent US7666635B2, “Process for the preparation of amides” (priority 1997, dated 2010)
Where two headings read alike, the source gives them in different places.

Key:
[1] = test system: nitrile hydratase of NA40; assay: Determination of the KM value (Lineweaver-Burk diagram); type: biochemical, Amycolatopsis NA40; conditions: substance as substrate; 20 ° C., 45 mM phosphate buffer, pH 7.0
Method: The KM value was determined to be 41.7 mM for 3-cyanopyridine and to be 3.7 mM for acrylonitrile by means of the Lineweaver-Burk diagram. […] This is one of the main advantages of NA40.

[2] = test system: Rhodococcus rhodochrous J1; assay: Activity for 3-cyanopyridine, microorganism (comparison in basal medium); type: cell-based
Method: (§1) (1) For determination of the nitrile hydratase activity, a reaction mixture (2 ml) containing 3-cyanopyridine (1.0 M, 1.0 ml), potassium phosphate buffer (pH 7.0, 0.1 M, 0.5 ml) and 0.5 ml of cell suspension were incubated at 20° C. for 30 min with stirring. The reaction was stopped by addition of 0.2 ml of 3 N HCl. After centrifuging briefly, the nicotinamide formed was determined by means of HPLC (Shimadzu SPD 6A system using a C18 column (Develosil ODS-HG-5. […]); eluent: 10 mM KH2PO4/H3PO4 (pH 2.8)/acetonitrile 9:1 (v/v); flow rate: 1 ml/min; the absorption was measured at 230 nm). The specific activity was expressed as µmol of nicotinamide formed/ml/min/OD610 nm.
(§2) The reaction rates of aliphatic nitriles in the enrichment medium (Table 1) with isolated bacteria is summarized in Table 5, the effects of inducers and cofactors in the basal medium (Table 2) is summarized in Table 4 and the activity comparison of Amycolatopsis to Rhodoccus in the basal medium (Table 2) is summarized in Table 6.

[3] = test system: Amycolatopsis NA40 (DSMZ 11617); assay: as above; type: cell-based
Method: as §1, §2

Rhodoccus GF578 = assay: Tolerance of 3-cyanopyridine on the activity of resting cells; type: cell-based, Rhodococcus GF578; conditions: up to a substrate concentration of 8%, resting cells 15 min at 20° C.
Method: (§3) In order to test the tolerance of 3-cyanopyridine, resting cells were incubated for 15 min at 20° C. at concentrations of 3-cyanopyridine between 1 and 10% (w/v) and the cells were then removed by centrifugation. After washing the cells with 0.85% NaCl, the remaining activity was measured.
(§4) The tolerance of 3-cyanopyridine as a substrate was tested at various substrate concentrations.

[4] = test system: NA40 nitrile hydratase (resting NA40 cells); assay: Substrate specificity of resting NA40 cells; type: cell-based, Amycolatopsis NA40
Method: (3) For determination of the activity of NA40 with respect to a number of substrates, cells having a dry weight of 0.0388 mg were incubated in the buffer described above. The reaction was started by addition of the appropriate substrate and incubated at 20° C. with shaking for 10 min. The reaction was stopped by addition of 0.2 ml of 2 N HCl and the reaction mixture was briefly centrifuged. The supernatant was analysed by means of HPLC or gas chromatography.

Rhodococcus GF270 = assay: Substrate specificity of the Rhodococcus strains; type: cell-based
Method: (§5) Rhodococcus rhodochrous J1 was cultured for 72 h in the medium described in EP-A 0 307 926. The microorganisms Rhodoccus GF674, GF578, GF270 and GF376 were cultured in the following media at pH 7.0 for up to 96 h:
(§6) Rhodoccus GF674 in a medium comprising yeast extract 1.0 g/l, fructose 5.0 g/l, malt extract 10.0 g/l, acetamide 5.0 g/l, KH2PO4 2.0 g/l, MgSO47H2O 0.5 g/l and CoCl2.6H2O 10.0 mg. Rhodoccus GF578 in a medium containing yeast extract 1.0 g/l, fructose 15.0 g/l, malt extract 10.0 g/l, acetamide 25.0 g/l, KH2PO4 2.0 g/l, MgSO47H2O 0.5 g/l and CoCl2.6H2O 5.0 mg. […] Rhodoccus GF3 76 in a medium containing yeast extract 1.0 g/l, sodium citrate 10.0 g/l, malt extract 15.0 g/l, butyramide 7.5 g/l, KH2PO4 2.0 g/l, MgSO4.7H2O 0.5 g/l and CoCl2.6H2O 15.0 mg.
(§7) The substrate specificity is summarized as relative activity in Table 15.

Rhodococcus GF376 = assay: Substrate specificity of the Rhodococcus strains; type: cell-based
Method: as §5, §6, §7

Rhodococcus GF578 = assay: Substrate specificity of the Rhodococcus strains; type: cell-based
Method: as §5, §6, §7

Rhodococcus GF674 = assay: Substrate specificity of the Rhodococcus strains; type: cell-based
Method: as §5, §6, §7

Rhodoccus GF270 = assay: Tolerance of 3-cyanopyridine on the activity of resting cells; type: cell-based, Rhodococcus GF270; conditions: substrate concentration of 4% (w/v), resting cells 15 min at 20° C.
Method: as §3, §4

Rhodoccus rhodochrous J1 = assay: as above; type: cell-based, Rhodococcus rhodochrous J1; conditions: substrate concentration of 2% (w/v), resting cells 15 min at 20° C.
Method: as §3, §4

[5] = target: T1, Purified enzyme from J1 (nitrile hydratase) (Rhodococcus rhodochrous, UniProt P21219+P21220); assay: Activity for 3-cyanopyridine, purified enzyme; type: biochemical
T1 construct: host or cells: Rhodococcus rhodochrous J1 (native producer)

[6] = test system: Purified enzyme from NA40 (nitrile hydratase); assay: Activity for 3-cyanopyridine, purified enzyme; type: biochemical, Amycolatopsis NA40
Method: […] The reaction was stopped by addition of 0.2 ml of 3 N HCl. After centrifuging briefly, the nicotinamide formed was determined by means of HPLC (Shimadzu SPD 6A system using a C18 column (Develosil ODS-HG-5. […]); eluent: 10 mM KH2PO4/H3PO4 (pH 2.8)/acetonitrile 9:1 (v/v); flow rate: 1 ml/min; the absorption was measured at 230 nm). The specific activity was expressed as µmol of nicotinamide formed/ml/min/OD610 nm.
as §2

Rhodoccus GF376 = assay: Tolerance of 3-cyanopyridine on the activity of resting cells; type: cell-based, Rhodococcus GF376; conditions: substrate concentration of 10% (w/v), resting cells 15 min at 20° C.
Method: as §3, §4

[7] = test system: Rhodococcus rhodochrous J1; assay: Substrate specificity of the Rhodococcus strains; type: cell-based
Method: as §5, §7

Rhodoccus GF674 = assay: Tolerance of 3-cyanopyridine on the activity of resting cells; type: cell-based, Rhodococcus GF674; conditions: substrate concentration of 4% (w/v), resting cells 15 min at 20° C.
Method: as §3, §4

[8] = test system: purified nitrile hydratase from NA40; assay: Substrate specificity of the purified nitrile hydratase; type: biochemical, Amycolatopsis NA40
Method: The substrate specificity was determined analogously to Example 2 (1).
1.7 Units of enzyme were added to the reaction mixture (2.0 ml). The reaction mixture contained the respective substrate in 45 mM phosphate buffer (pH 7.0).

[9] = test system: Amycolatopsis NE31 (DSMZ 11616); assay: Conversion rates of aliphatic nitriles using the isolated bacteria (enrichment medium); type: cell-based
Method: (§8) a) Various soil samples were inoculated with various nitriles or amides as a C and N source in the enrichment medium according to Table 1 and incubated at 37° C. or 45° C. for 7 10 days. The cultures were then transferred to the same medium and again cultured at 37° C. for 7 10 days. The whole process was repeated 3 times. The cultures were then diluted and plated out in order to obtain individual colonies. The plates were incubated at 37° C. for 5 days. The different colonies were then tested for the desired activity.
(§9) […] as a C and N source for Amycolatopsis NE31 (DSMZ 11616) Actinomadura spadix E3733 and Actinomadura spadix E3736, azelanitrile served as a C and N source for Amycolatopsis NA40 (DSMZ 11617) and Actinomadura spadix 45A32, n-octanenitrile served as a C and N source for Actinomadura spadix 4501 and cyanoacetic acid served as a C and N source for Actinomadura spadix C15.
as §1, §2

[10] = test system: Actinomadura spadix E3733; assay: as above; type: cell-based
Method: as §8, §9, §1, §2

[11] = test system: Actinomadura spadix E3736; assay: as above; type: cell-based
Method: as §8, §9, §1, §2

[12] = test system: Amycolatopsis NA40 (DSMZ 11617); assay: as above; type: cell-based
Method: as §8, §9, §1, §2

[13] = test system: Actinomadura spadix 45A32; assay: as above; type: cell-based
Method: as §8, §9, §1, §2

Actinomadura spadix C15 = assay: as above; type: cell-based
Method: as §8, §9, §1, §2

Amycolatopsis NA40 = assay: Effect of methanol on resting cells of NA40; type: cell-based; conditions: for Relative activity: 10 min
Method: The reaction was carried out for 10 min in the presence of 0 20% (v/v) methanol according to Table 13.

Actinomadura spadix 45O1 = assay: Conversion rates of aliphatic nitriles using the isolated bacteria (enrichment medium); type: cell-based
Method: as §8, §9, §1, §2

[14] = test system: purified nitrile hydratase from NA40; assay: Substrate specificity of the purified nitrile hydratase; type: biochemical, Amycolatopsis NA40; conditions: pH 7
[15] = resting NA40 cells, 20° C., 10 min, 3-cyanopyridine = 100, substrate concentration per Table 8
[16] = Rhodococcus GF270, 3-cyanopyridine = 100
[17] = Rhodococcus GF376, 3-cyanopyridine = 100
[18] = Rhodococcus GF578, 3-cyanopyridine = 100
[19] = Rhodococcus GF674, 3-cyanopyridine = 100
[20] = Rhodococcus rhodochrous J1, 3-cyanopyridine = 100
[21] = purified enzyme, 3-cyanopyridine = 100

T1 sequence (P21219 2-203 limits assumed): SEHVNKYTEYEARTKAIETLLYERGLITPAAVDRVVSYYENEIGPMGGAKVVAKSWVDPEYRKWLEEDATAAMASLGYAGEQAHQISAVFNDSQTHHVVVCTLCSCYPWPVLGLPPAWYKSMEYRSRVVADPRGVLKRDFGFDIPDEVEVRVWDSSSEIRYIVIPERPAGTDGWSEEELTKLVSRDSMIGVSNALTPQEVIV
T1 sequence (P21220 whole entry): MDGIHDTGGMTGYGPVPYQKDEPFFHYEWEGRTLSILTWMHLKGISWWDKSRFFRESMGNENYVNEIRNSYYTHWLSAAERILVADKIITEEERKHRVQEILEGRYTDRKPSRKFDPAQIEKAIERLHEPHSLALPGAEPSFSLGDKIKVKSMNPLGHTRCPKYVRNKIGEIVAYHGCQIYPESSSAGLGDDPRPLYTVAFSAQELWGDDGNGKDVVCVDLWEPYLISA

N#Cc1cccnc1 [3-Cyanopyridine]
Km [1]: 41.7 mM
Activity for 3-cyanopyridine [2]: 314
Activity for 3-cyanopyridine [3]: 303 µmol/mL/min
nitrile hydratase activity (Rhodoccus GF578): remained nearly constant
Relative activity [4, 15]: 100%
relative activity (substrate specificity) (Rhodococcus GF270; [16]): 100%
relative activity (substrate specificity) (Rhodococcus GF376; [17]): 100%
relative activity (substrate specificity) (Rhodococcus GF578; [18]): 100%
relative activity (substrate specificity) (Rhodococcus GF674; [19]): 100%
nitrile hydratase activity decreased by the factor (Rhodoccus GF270): 1.17
nitrile hydratase activity decreased by the factor (Rhodoccus rhodochrous J1): 1.4
Activity for 3-cyanopyridine [5]: 371 μmol/min/mg protein
Activity for 3-cyanopyridine [6]: 1110 μmol/min/mg protein
nitrile hydratase activity decreased by the factor (Rhodoccus GF376): 1.25
relative activity (substrate specificity) [7, 20]: 100%
nitrile hydratase activity decreased by the factor (Rhodoccus GF674): 1.4
Relative activity, Enzyme reaction [8, 21]: 100%

C=CC#N [Acrylonitrile]
Km [1]: 3.7 mM
Relative activity [4, 15]: 115%
relative activity (substrate specificity) (Rhodococcus GF270; [16]): 192%
relative activity (substrate specificity) (Rhodococcus GF376; [17]): 257%
relative activity (substrate specificity) (Rhodococcus GF578; [18]): 101%
relative activity (substrate specificity) (Rhodococcus GF674; [19]): 147%
relative activity (substrate specificity) [7, 20]: 478%
Relative activity, Enzyme reaction [8, 21]: 94%

N#CCCCCC#N [Adiponitrile]
Specific activity ([9]; strain NE31): 0.141 μmol/ml/min/OD
Total activity ([9]; strain NE31): 0.377 µmol/mL/min
Growth (OD610 nm) ([9]; strain NE31, nitrile as substrate in enrichment medium): 2.68 OD610 nm
Specific activity ([10]; strain E3733): 0.214 μmol/ml/min/OD
Total activity ([10]; strain E3733): 0.347 µmol/mL/min
Growth (OD610 nm) ([10]; strain E3733, nitrile as substrate in enrichment medium): 1.62 OD610 nm
Specific activity ([11]; strain E3736): 2.21 μmol/ml/min/OD
Total activity ([11]; strain E3736): 3.00 µmol/mL/min
Growth (OD610 nm) ([11]; strain E3736, nitrile as substrate in enrichment medium): 1.36 OD610 nm

N#CCCCCCCCC#N [Azelanitrile]
Specific activity ([12]; strain NA40): 5.57 μmol/ml/min/OD
Total activity ([12]; strain NA40): 33.0 µmol/mL/min
Growth (OD610 nm) ([12]; strain NA40, nitrile as substrate in enrichment medium): 5.92 OD610 nm
Specific activity ([13]; strain 45A32): 3.23 μmol/ml/min/OD
Total activity ([13]; strain 45A32): 18.8 µmol/mL/min
Growth (OD610 nm) ([13]; strain 45A32, nitrile as substrate in enrichment medium): 5.81 OD610 nm

N#CCC(=O)O [Cyanoacetic acid]
Specific activity (Actinomadura spadix C15; strain C15): 3.43 μmol/ml/min/OD
Total activity (Actinomadura spadix C15; strain C15): 7.01 µmol/mL/min
Growth (OD610 nm) (Actinomadura spadix C15; strain C15, substrate in enrichment medium): 2.04 OD610 nm

CO [methanol]
activity of resting NA40 cells (Amycolatopsis NA40; addition of 5 15% methanol): increased
Relative activity (Amycolatopsis NA40; methanol 5 % (v/v), 0 % = 100): 123%
Relative activity (Amycolatopsis NA40; methanol 10 % (v/v)): 128%
Relative activity (Amycolatopsis NA40; methanol 15 % (v/v)): 130%
Relative activity (Amycolatopsis NA40; methanol 20 % (v/v)): 105%

CCCCCCCC#N [n-octanenitrile]
Specific activity (Actinomadura spadix 45O1; strain 45O1): 4.45 μmol/ml/min/OD
Total activity (Actinomadura spadix 45O1; strain 45O1): 32.2 µmol/mL/min
Growth (OD610 nm) (Actinomadura spadix 45O1; strain 45O1, nitrile as substrate in enrichment medium): 7.24 OD610 nm

N#Cc1ccc(Cl)cc1 [p-Chlorobenzonitrile]
Relative activity [4]: 16%
relative activity (substrate specificity) (Rhodococcus GF270): 0%
relative activity (substrate specificity) (Rhodococcus GF376): 0%
relative activity (substrate specificity) (Rhodococcus GF578): 0%
relative activity (substrate specificity) (Rhodococcus GF674): 0%
relative activity (substrate specificity) [7]: 13%
Relative activity, Enzyme reaction [8]: 13%
Total activity [14]: 2.30 µmol/mL/min
